Data on 16 compounds can be found in ChEMBL document CHEMBL3870303, “Substituted conformationally restricted guanidine derivatives: Probing the α2-adrenoceptors' binding pocket” (Eur J Med Chem, 2016).

Calls of active or inactive are those of the source. The calls are words filed in the database; no cut-off is given here.

In the first assay the target is T1, Adrenergic receptor alpha-2 (Homo sapiens, UniProt P08913+P18825+P18089).
T1 sequence (P08913 whole entry): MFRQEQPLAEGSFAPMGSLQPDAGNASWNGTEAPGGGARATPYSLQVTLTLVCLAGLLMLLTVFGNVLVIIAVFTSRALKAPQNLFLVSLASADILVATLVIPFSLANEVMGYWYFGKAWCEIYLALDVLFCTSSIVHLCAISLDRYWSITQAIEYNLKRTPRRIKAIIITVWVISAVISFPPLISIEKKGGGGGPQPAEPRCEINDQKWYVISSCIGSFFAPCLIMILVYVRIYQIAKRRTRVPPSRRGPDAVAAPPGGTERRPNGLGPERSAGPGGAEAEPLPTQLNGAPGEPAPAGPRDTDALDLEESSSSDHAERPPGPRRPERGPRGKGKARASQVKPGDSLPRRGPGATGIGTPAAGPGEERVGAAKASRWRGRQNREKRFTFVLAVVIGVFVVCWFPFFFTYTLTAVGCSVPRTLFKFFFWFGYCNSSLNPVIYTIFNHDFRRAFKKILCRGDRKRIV
T1 sequence (P18825 whole entry): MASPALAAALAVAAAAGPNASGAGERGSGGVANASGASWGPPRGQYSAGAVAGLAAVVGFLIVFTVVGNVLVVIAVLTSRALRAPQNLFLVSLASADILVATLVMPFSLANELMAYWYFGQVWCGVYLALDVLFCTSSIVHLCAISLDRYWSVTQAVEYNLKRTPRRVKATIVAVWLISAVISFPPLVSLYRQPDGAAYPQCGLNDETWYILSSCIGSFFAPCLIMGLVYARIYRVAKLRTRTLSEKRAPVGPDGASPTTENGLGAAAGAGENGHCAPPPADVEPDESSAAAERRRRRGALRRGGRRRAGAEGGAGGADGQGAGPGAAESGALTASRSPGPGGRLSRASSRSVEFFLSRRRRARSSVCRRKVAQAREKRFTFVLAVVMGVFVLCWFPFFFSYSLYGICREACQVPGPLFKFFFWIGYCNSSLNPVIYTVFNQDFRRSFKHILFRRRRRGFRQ
T1 sequence (P18089 whole entry): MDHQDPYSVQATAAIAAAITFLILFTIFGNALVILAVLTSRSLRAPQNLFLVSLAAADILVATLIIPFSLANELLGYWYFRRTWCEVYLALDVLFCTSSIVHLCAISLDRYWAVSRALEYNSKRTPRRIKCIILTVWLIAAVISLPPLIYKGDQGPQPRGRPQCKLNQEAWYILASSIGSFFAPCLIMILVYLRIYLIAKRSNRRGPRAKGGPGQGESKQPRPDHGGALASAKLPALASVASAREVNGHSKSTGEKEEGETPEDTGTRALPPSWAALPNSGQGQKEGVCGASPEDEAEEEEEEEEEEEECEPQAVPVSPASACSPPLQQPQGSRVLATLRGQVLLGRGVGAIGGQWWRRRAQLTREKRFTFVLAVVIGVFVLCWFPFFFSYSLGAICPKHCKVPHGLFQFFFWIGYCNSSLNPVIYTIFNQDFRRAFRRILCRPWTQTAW
Briefly: Displacement of [3H]RX821002 from alpha-2 adrenergic receptor in human brain pre-frontal cortex neural membranes after 30 mins by liquid scintillation counting method. On the technique in general: In a radioligand displacement assay an active substance lowers the binding of a labelled ligand.
As a reminder, the pKi is the Ki on a negative log10 scale, so that one unit is a factor of ten. `c1ccc(CNC2=NCc3cccnc3N2Cc2ccc3c(c2)OCO3)cc1` displayed a pKi of 5.15. The same measure, in the same setting: in the case of `CCCN1C(NCc2ccccc2)=NCc2cccnc21` it was 5.05; in that of `NC1=NCc2ccccc2N1c1ccccc1`, 5.85. Same read-out and setting: to `OCCNC1=NCCc2cc3c(cc2N1)OCO3` belongs 5.5; to `c1ccc(CNC2=NCc3ccccc3N2c2ccccc2)cc1`, 4.92.

In the case of `CCCN1C(NCc2ccccc2)=NCc2ccccc21`, the negative logarithm of the Ki (pKi) is reported as 5.29. The same measure, in the same setting: to `OCCNC1=NCCc2ccccc2N1` belongs 5.81; to `c1ccc(CNC2=NCc3ccccc3N2Cc2ccc3c(c2)OCO3)cc1`, 6.55. Still for that read-out and setting: to `CN(C)c1ccc2c(c1)CCN=C(NCc1ccc3c(c1)OCO3)N2` belongs 6.14; to `c1ccc2c(c1)CCN=C(NCc1ccc3c(c1)OCO3)N2`, 6.64.

The compound `OCCN1C(NCc2ccccc2)=NCc2cccnc21` had a negative-log Ki (pKi) of 5.07.

For `CCCN1C(N)=NCc2ccccc21`, the negative logarithm of the Ki (pKi) is 5.11. The pKi values of the last two compounds are within 0.2 log units of each other. Compound `CN(C)c1ccc2c(c1)CCN=C(NCc1ccco1)N2` displayed a negative logarithm of the Ki (pKi) of 5.36. In turn, `COC1(C2=NCCN2)COc2ccccc2O1` (stereo not drawn) came in with a negative-log Ki (pKi) of 8.85. Still for that read-out and setting: to `CCCN1C(N)=NCc2cccnc21` belongs 4.99; to `CN(C)c1ccc2c(c1)CCN=C(NCCO)N2`, 4.99.

A further assay has as its target Adrenergic receptor alpha-2 (Homo sapiens) (UniProt P08913+P18825+P18089). Briefly: Antagonist activity at alpha-2 adrenergic receptor in human brain prefrontal cortex neural membranes assessed as inhibition of [35S]GTPgammaS binding after 120 mins by liquid scintillation counting. The assay is classed as functional, tissue-based. In general terms: GTPγS is a poorly hydrolysed GTP analogue; its binding reports G protein activation.
For `c1ccc(CNC2=NCc3cccnc3N2Cc2ccc3c(c2)OCO3)cc1`, the inhibition result was “Active”. On the same count and under the same terms, to `c1ccc2c(c1)CCN=C(NCc1ccc3c(c1)OCO3)N2` belongs “Active”.
